Data on four compounds can be found in PubChem BioAssay AID1963867 (Molecular Pharmacology Branch, DTP, NCI, 2024).

SMILES strings stand for the structures.
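Also: spheroids exposed to agents for seven days before reading.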
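For viability, T/C in this document: 100% = DMSO vehicle wells so lower means fewer viable cells.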

The first experiment concerns KRAS-mutant PDC tumor spheroid with HUVEC/MSC, viability. Description: Anticancer human tumor 327498-153-R-J2-PDC patient-derived uterine carcinosarcoma cell line growth inhibition [KRAS2]. Particulars: curve of first compound; second compound 0.1 µM. The procedure, abridged: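 KRAS-mutant tumor cells were grown as spheroids with HUVEC endothelial cells and human MSCs as stroma. Targeted agents were tested alone and with KRAS pathway inhibitors. Doses started at or near clinical Cmax, or 10 microM, descending half-log.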
In the case of `CC(C)NCC(C(=O)N1CCN(c2ncnc3c2C(C)CC3O)CC1)c1ccc(Cl)cc1` (stereo not given) + C=CC(=O)N1CCN(c2nc(=O)n(-c3c(C)ccnc3C(C)C)c3nc(-c4c(O)cccc4F)c(F)cc23)C(C)C1, the IC50 came to 0.0418 µM.

Take `CC1COCCN1c1cc(-c2ccnn2C)c2ccnc(-c3ccn[nH]3)c2n1` (stereo not given) + C=CC(=O)N1CCN(c2nc(=O)n(-c3c(C)ccnc3C(C)C)c3nc(-c4c(O)cccc4F)c(F)cc23)C(C)C1: the IC50 was 0.0129 µM.

For the compound `CCN1CCN(Cc2ccc(Nc3ncc(F)c(-c4cc(F)c5nc(C)n(C(C)C)c5c4)n3)nc2)CC1` + C=CC(=O)N1CCN(c2nc(=O)n(-c3c(C)ccnc3C(C)C)c3nc(-c4c(O)cccc4F)c(F)cc23)C(C)C1, the concentration for half-maximal inhibition (IC50) is 0.00523 µM.

`CCNC(=O)CC1N=C(c2ccc(Cl)cc2)c2cc(OC)ccc2-n2c(C)nnc21` (stereo not given) + C=CC(=O)N1CCN(c2nc(=O)n(-c3c(C)ccnc3C(C)C)c3nc(-c4c(O)cccc4F)c(F)cc23)C(C)C1: the IC50 worked out at 0.253 µM.

Still in this experiment, the particulars now being: curve of first compound; second compound 0.316 µM.
In the case of `CC(C)NCC(C(=O)N1CCN(c2ncnc3c2C(C)CC3O)CC1)c1ccc(Cl)cc1` (stereo not given) + C=CC(=O)N1CCN(c2nc(=O)n(-c3c(C)ccnc3C(C)C)c3nc(-c4c(O)cccc4F)c(F)cc23)C(C)C1, the IC50 was less than 0.0316 µM.

As to `CC1COCCN1c1cc(-c2ccnn2C)c2ccnc(-c3ccn[nH]3)c2n1` (stereo not given) + C=CC(=O)N1CCN(c2nc(=O)n(-c3c(C)ccnc3C(C)C)c3nc(-c4c(O)cccc4F)c(F)cc23)C(C)C1, the IC50 is less than 0.01 µM.

For `CCN1CCN(Cc2ccc(Nc3ncc(F)c(-c4cc(F)c5nc(C)n(C(C)C)c5c4)n3)nc2)CC1` + C=CC(=O)N1CCN(c2nc(=O)n(-c3c(C)ccnc3C(C)C)c3nc(-c4c(O)cccc4F)c(F)cc23)C(C)C1, the concentration for half-maximal inhibition (IC50) was less than 0.00316 µM.

Take `CCNC(=O)CC1N=C(c2ccc(Cl)cc2)c2cc(OC)ccc2-n2c(C)nnc21` (stereo not given) + C=CC(=O)N1CCN(c2nc(=O)n(-c3c(C)ccnc3C(C)C)c3nc(-c4c(O)cccc4F)c(F)cc23)C(C)C1: the IC50 amounted to 0.103 µM.

Staying with this experiment, now noted: curve of first compound; second compound 1 µM.
As to `CC(C)NCC(C(=O)N1CCN(c2ncnc3c2C(C)CC3O)CC1)c1ccc(Cl)cc1` (stereo not given) + C=CC(=O)N1CCN(c2nc(=O)n(-c3c(C)ccnc3C(C)C)c3nc(-c4c(O)cccc4F)c(F)cc23)C(C)C1, the IC50 is less than 0.0316 µM.

As to `CC1COCCN1c1cc(-c2ccnn2C)c2ccnc(-c3ccn[nH]3)c2n1` (stereo not given) + C=CC(=O)N1CCN(c2nc(=O)n(-c3c(C)ccnc3C(C)C)c3nc(-c4c(O)cccc4F)c(F)cc23)C(C)C1, the half-maximal inhibitory concentration (IC50) is less than 0.01 µM.

For the compound `CCN1CCN(Cc2ccc(Nc3ncc(F)c(-c4cc(F)c5nc(C)n(C(C)C)c5c4)n3)nc2)CC1` + C=CC(=O)N1CCN(c2nc(=O)n(-c3c(C)ccnc3C(C)C)c3nc(-c4c(O)cccc4F)c(F)cc23)C(C)C1, the IC50 was less than 0.00316 µM.

With `CCNC(=O)CC1N=C(c2ccc(Cl)cc2)c2cc(OC)ccc2-n2c(C)nnc21` (stereo not given) + C=CC(=O)N1CCN(c2nc(=O)n(-c3c(C)ccnc3C(C)C)c3nc(-c4c(O)cccc4F)c(F)cc23)C(C)C1, the IC50 is 0.154 µM.

The same experiment, now with this note: curve of first compound; second compound 3.16 µM.
With `CC(C)NCC(C(=O)N1CCN(c2ncnc3c2C(C)CC3O)CC1)c1ccc(Cl)cc1` (stereo not given) + C=CC(=O)N1CCN(c2nc(=O)n(-c3c(C)ccnc3C(C)C)c3nc(-c4c(O)cccc4F)c(F)cc23)C(C)C1, the concentration for half-maximal inhibition (IC50) is less than 0.0316 µM.

As to `CC1COCCN1c1cc(-c2ccnn2C)c2ccnc(-c3ccn[nH]3)c2n1` (stereo not given) + C=CC(=O)N1CCN(c2nc(=O)n(-c3c(C)ccnc3C(C)C)c3nc(-c4c(O)cccc4F)c(F)cc23)C(C)C1, the 50% inhibitory concentration (IC50) was less than 0.01 µM.

Turning to `CCN1CCN(Cc2ccc(Nc3ncc(F)c(-c4cc(F)c5nc(C)n(C(C)C)c5c4)n3)nc2)CC1` + C=CC(=O)N1CCN(c2nc(=O)n(-c3c(C)ccnc3C(C)C)c3nc(-c4c(O)cccc4F)c(F)cc23)C(C)C1, the IC50 is less than 0.00316 µM.

As to `CCNC(=O)CC1N=C(c2ccc(Cl)cc2)c2cc(OC)ccc2-n2c(C)nnc21` (stereo not given) + C=CC(=O)N1CCN(c2nc(=O)n(-c3c(C)ccnc3C(C)C)c3nc(-c4c(O)cccc4F)c(F)cc23)C(C)C1, the half-maximal inhibitory concentration (IC50) worked out at 0.117 µM.

The experiment is the same for the next values; noted with them: curve of first compound; second compound 10 µM.
Turning to `CC(C)NCC(C(=O)N1CCN(c2ncnc3c2C(C)CC3O)CC1)c1ccc(Cl)cc1` (stereo not given) + C=CC(=O)N1CCN(c2nc(=O)n(-c3c(C)ccnc3C(C)C)c3nc(-c4c(O)cccc4F)c(F)cc23)C(C)C1, the IC50 was less than 0.0316 µM.

In the case of `CC1COCCN1c1cc(-c2ccnn2C)c2ccnc(-c3ccn[nH]3)c2n1` (stereo not given) + C=CC(=O)N1CCN(c2nc(=O)n(-c3c(C)ccnc3C(C)C)c3nc(-c4c(O)cccc4F)c(F)cc23)C(C)C1, the 50% inhibitory concentration (IC50) was less than 0.01 µM.

As to `CCN1CCN(Cc2ccc(Nc3ncc(F)c(-c4cc(F)c5nc(C)n(C(C)C)c5c4)n3)nc2)CC1` + C=CC(=O)N1CCN(c2nc(=O)n(-c3c(C)ccnc3C(C)C)c3nc(-c4c(O)cccc4F)c(F)cc23)C(C)C1, the IC50 was less than 0.00316 µM.

With `CCNC(=O)CC1N=C(c2ccc(Cl)cc2)c2cc(OC)ccc2-n2c(C)nnc21` (stereo not given) + C=CC(=O)N1CCN(c2nc(=O)n(-c3c(C)ccnc3C(C)C)c3nc(-c4c(O)cccc4F)c(F)cc23)C(C)C1, the IC50 was less than 0.0316 µM.

The experiment is the same for the next values; noted with them: second compound 0.1 µM; first compound 0.00316 µM; stronger effect = lower value.
In the case of `CCN1CCN(Cc2ccc(Nc3ncc(F)c(-c4cc(F)c5nc(C)n(C(C)C)c5c4)n3)nc2)CC1` + C=CC(=O)N1CCN(c2nc(=O)n(-c3c(C)ccnc3C(C)C)c3nc(-c4c(O)cccc4F)c(F)cc23)C(C)C1, the viability, T/C is 56.9%.

The same experiment, now with this note: second compound 0.1 µM; first compound 0.01 µM; stronger effect = lower value.
As to `CC1COCCN1c1cc(-c2ccnn2C)c2ccnc(-c3ccn[nH]3)c2n1` (stereo not given) + C=CC(=O)N1CCN(c2nc(=O)n(-c3c(C)ccnc3C(C)C)c3nc(-c4c(O)cccc4F)c(F)cc23)C(C)C1, the viability, T/C was 57%.

Turning to `CCN1CCN(Cc2ccc(Nc3ncc(F)c(-c4cc(F)c5nc(C)n(C(C)C)c5c4)n3)nc2)CC1` + C=CC(=O)N1CCN(c2nc(=O)n(-c3c(C)ccnc3C(C)C)c3nc(-c4c(O)cccc4F)c(F)cc23)C(C)C1, the viability, T/C was 42.5%.

Staying with this experiment, now noted: second compound 0.1 µM; first compound 0.0316 µM; stronger effect = lower value.
For the compound `CC(C)NCC(C(=O)N1CCN(c2ncnc3c2C(C)CC3O)CC1)c1ccc(Cl)cc1` (stereo not given) + C=CC(=O)N1CCN(c2nc(=O)n(-c3c(C)ccnc3C(C)C)c3nc(-c4c(O)cccc4F)c(F)cc23)C(C)C1, the viability, T/C is 54.5%.

In the case of `CC1COCCN1c1cc(-c2ccnn2C)c2ccnc(-c3ccn[nH]3)c2n1` (stereo not given) + C=CC(=O)N1CCN(c2nc(=O)n(-c3c(C)ccnc3C(C)C)c3nc(-c4c(O)cccc4F)c(F)cc23)C(C)C1, the viability, T/C is 24.8%.

With `CCN1CCN(Cc2ccc(Nc3ncc(F)c(-c4cc(F)c5nc(C)n(C(C)C)c5c4)n3)nc2)CC1` + C=CC(=O)N1CCN(c2nc(=O)n(-c3c(C)ccnc3C(C)C)c3nc(-c4c(O)cccc4F)c(F)cc23)C(C)C1, the viability, T/C was 32.7%.

Turning to `CCNC(=O)CC1N=C(c2ccc(Cl)cc2)c2cc(OC)ccc2-n2c(C)nnc21` (stereo not given) + C=CC(=O)N1CCN(c2nc(=O)n(-c3c(C)ccnc3C(C)C)c3nc(-c4c(O)cccc4F)c(F)cc23)C(C)C1, the viability, T/C was 58.2%.

The experiment is the same for the next values; noted with them: second compound 0.1 µM; first compound 0.1 µM; stronger effect = lower value.
For the compound `CC(C)NCC(C(=O)N1CCN(c2ncnc3c2C(C)CC3O)CC1)c1ccc(Cl)cc1` (stereo not given) + C=CC(=O)N1CCN(c2nc(=O)n(-c3c(C)ccnc3C(C)C)c3nc(-c4c(O)cccc4F)c(F)cc23)C(C)C1, the viability, T/C is 36.3%.

With `CC1COCCN1c1cc(-c2ccnn2C)c2ccnc(-c3ccn[nH]3)c2n1` (stereo not given) + C=CC(=O)N1CCN(c2nc(=O)n(-c3c(C)ccnc3C(C)C)c3nc(-c4c(O)cccc4F)c(F)cc23)C(C)C1, the viability, T/C is 8.42%.

For `CCN1CCN(Cc2ccc(Nc3ncc(F)c(-c4cc(F)c5nc(C)n(C(C)C)c5c4)n3)nc2)CC1` + C=CC(=O)N1CCN(c2nc(=O)n(-c3c(C)ccnc3C(C)C)c3nc(-c4c(O)cccc4F)c(F)cc23)C(C)C1, the viability, T/C is 30.6%.

On to `CCNC(=O)CC1N=C(c2ccc(Cl)cc2)c2cc(OC)ccc2-n2c(C)nnc21` (stereo not given) + C=CC(=O)N1CCN(c2nc(=O)n(-c3c(C)ccnc3C(C)C)c3nc(-c4c(O)cccc4F)c(F)cc23)C(C)C1, for which the viability, T/C was 58.7%.

The experiment is the same for the next values; noted with them: second compound 0.1 µM; first compound 0.316 µM; stronger effect = lower value.
Turning to `CC(C)NCC(C(=O)N1CCN(c2ncnc3c2C(C)CC3O)CC1)c1ccc(Cl)cc1` (stereo not given) + C=CC(=O)N1CCN(c2nc(=O)n(-c3c(C)ccnc3C(C)C)c3nc(-c4c(O)cccc4F)c(F)cc23)C(C)C1, the viability, T/C was 22.2%.

For the compound `CC1COCCN1c1cc(-c2ccnn2C)c2ccnc(-c3ccn[nH]3)c2n1` (stereo not given) + C=CC(=O)N1CCN(c2nc(=O)n(-c3c(C)ccnc3C(C)C)c3nc(-c4c(O)cccc4F)c(F)cc23)C(C)C1, the viability, T/C is 5.52%.

With `CCN1CCN(Cc2ccc(Nc3ncc(F)c(-c4cc(F)c5nc(C)n(C(C)C)c5c4)n3)nc2)CC1` + C=CC(=O)N1CCN(c2nc(=O)n(-c3c(C)ccnc3C(C)C)c3nc(-c4c(O)cccc4F)c(F)cc23)C(C)C1, the viability, T/C is 30.7%.

As to `CCNC(=O)CC1N=C(c2ccc(Cl)cc2)c2cc(OC)ccc2-n2c(C)nnc21` (stereo not given) + C=CC(=O)N1CCN(c2nc(=O)n(-c3c(C)ccnc3C(C)C)c3nc(-c4c(O)cccc4F)c(F)cc23)C(C)C1, the viability, T/C was 45.8%.
